Measurements from a melting point compilation (Tetko et al.; mined from patent text by program, amines drawn as free bases though some values may be those of a salt).

Compound CCOC(=O)COc1ccc2cc(-c3oc4ccccc4c3CCC3CCCC3)ccc2c1Br has a melting point of 115 to 120 °C.
CS(=O)(=O)Nc1cc2occ(-n3cccc3)c(=O)c2cc1Oc1ccccc1 showed a melting point of 238 to 240 °C.
In the case of CCCCCCn1c(C)cc(C)c(C(=O)O)c1=O, the melting point is reported as 79 to 82.5 °C.
Compound CCCCCCCCCCCCCCCCSCCCCCCCCCCC(=O)NN has a melting point of 108 °C.
CSc1ccc2nc(N)c(C(N)=O)cc2c1 showed a melting point of 229 to 242 °C.
In the case of CCOC(=O)c1cn(Cc2ccccc2)nc1OCc1ccc(OCc2nc(-c3ccco3)oc2C)c(C)c1, the melting point is reported as 120 to 121 °C.
Compound O=C(CC1(c2ccc(OCc3ccc4ccccc4n3)cc2)CCCC1)NS(=O)(=O)Cc1ccccc1 has a melting point of 171 °C.
Work on COc1cc(C(=O)NC=NC(=O)ON(c2ccc(C)c(NC(=O)c3ccc(C(=O)c4ccccc4)cc3)c2)C(C)(C)C)cc(OC)c1OC yielded a melting point of 96 °C.
Work on CC(=O)OCc1cc(N)ccc1N1C(=O)c2ccc(Cl)cc2C1=O yielded a melting point of 136 to 138 °C.
In the case of CCC1CC(=O)N(Cc2ccc(C(=O)NC3CCCC3)cc2)N=C1c1ccc(OC)c(OC)c1 (stereo not given), the melting point is reported as 154 °C.
CCOC(=O)/C=C/c1cccc(C(F)(F)F)c1 showed a melting point of 40 to 41 °C.
In the case of O=C(O)COc1ccc(C=CC(=O)c2ccc(C(=O)O)cc2)cc1, the melting point is reported as 312 to 314 °C.
Work on O=C1c2ccccc2C(=O)N1CCCN1CCN(c2ccccc2)CC1 yielded a melting point of 105 to 122 °C.
Work on CC1=C(C(=O)OCCC#N)C(c2c(F)cccc2Cl)C(C(=O)OC2CCCC2)=C(C)N1 (stereo not given) yielded a melting point of 135 to 136 °C.
CCNC(=O)c1c[nH]c2ncc(-c3nn(C)c4cc(Cl)ccc34)nc12 gave a melting point of 373 to 377 °C.
NC(=O)c1cc(C(O)CN(Cc2ccccc2)Cc2ccccc2)cc2cc[nH]c12 (stereo not given) gave a melting point of 116 to 118 °C.
Compound Cn1nc(-c2cccc(C(F)(F)F)c2)c(Br)c1C(=O)O has a melting point of 182 to 184 °C.
In the case of CC(C)(C)OC(=O)C[C@H](NC(=O)CNC(=O)CC1(c2ccc(C(N)=S)cc2)OCCO1)C(=O)N[C@@H](Cc1ccccc1)C(=O)OC(C)(C)C, the melting point is reported as 96 to 98 °C.
Compound CC(=O)OC1CSC(Oc2cncc(-c3ccc(F)cc3Cl)c2)C(OC(C)=O)C1OC(C)=O (stereo not given) has a melting point of 115 °C.
With CCCCCCN1CC(C(=O)OC)N(S(=O)(=O)c2ccc(-c3ccc(Br)cc3)cc2)CC1=O (stereo not given) the melting point was 127 to 129 °C.
For CCCCOC(=O)COc1cc(F)c(-c2nn(C)c(C(F)(F)F)c2Cl)cc1[N+](=O)[O-], the melting point was 65 °C.
O=S(=O)(c1ccc(I)cc1)N1CCCC(c2ccc(Cl)c(C(F)(F)F)c2)=N1 showed a melting point of 153 to 154 °C.
In the case of COc1ccc(Cc2n[nH]c3c2c(=O)n(-c2ccccc2)c2ncccc32)cc1OC, the melting point is reported as 230 to 232 °C.
In the case of CC(C)(C)C(=O)Nc1cc(OCc2ccccc2)c(OCc2ccccc2)cc1N, the melting point is reported as 115 °C.
In the case of CCn1nccc1NC(=O)c1ccc(OC)c2oc(COC)cc12, the melting point is reported as 97 to 99 °C.
For Nc1cc(C(=O)O)cc(OCc2ccccc2)c1C(=O)c1ccccc1, the melting point was 216 to 218 °C.
With CN1C(O)=C(c2ccccc2)N=NC1(C)N (stereo not given) the melting point was 91 °C.
In the case of CN1CCC(=C2c3ccc(Cl)cc3CC(=O)c3sccc32)CC1, the melting point is reported as 150 to 151 °C.
CCCCCOc1ccc(C(=O)c2cccc3ccccc23)c2ccccc12 showed a melting point of 72 to 75 °C.
With CN(C)CC(=O)NCC#Cc1cnc2c(c1)N(Cc1c(Cl)cccc1Cl)CCN2 the melting point was > 200 °C.
In the case of CCCCNC(=O)Oc1ccc(Oc2ccccc2)cc1Br, the melting point is reported as 57 to 60 °C.
For FC(F)(F)c1ccc(-c2cc(C(F)(F)F)n3cnc(-c4ccncc4)c3n2)cc1, the melting point was 240 °C.
CCOc1ccc2c(c1)C(C)(c1ccccc1Cl)C(=O)N2S(=O)(=O)c1ccc(C(=O)O)cc1 (stereo not given) gave a melting point of 174 °C.
With CC(=O)Nc1cccc(N(C)C)n1 the melting point was 118 to 119 °C.
COc1ccc(-c2cc3ccc(OC)cc3s2)cc1 gave a melting point of 193 to 194 °C.
Work on C[C@@H](N(CCO)C(=O)c1ccc(C(F)(F)F)cc1)[C@](O)(Cn1cncn1)c1ccc(Cl)cc1Cl (relative stereo) yielded a melting point of 185 to 189 °C.
Cc1c(C2=CCC(Cc3ccccc3)(N(C)C)CC2)[nH]c2ccc(F)cc12 (stereo not given) gave a melting point of 62 to 65 °C.
Work on C=C(c1ccc(C(C)C)cc1)c1c(C)c(NC(=O)CC(C)(C)C)c(C)c2c1OCC2 yielded a melting point of 188 to 189 °C.
In the case of CS(=O)(=O)c1ccc(-c2cnn(-c3ccc(F)cc3)c(=O)c2N2CCCCC2)cc1, the melting point is reported as 80 to 100 °C.
CCOC(=O)c1cn(C2CC2)c2c(F)c(C)c(F)cc2c1=O gave a melting point of 177 to 179 °C.
For Cc1cccc(C(=O)Nc2c[nH]nc2C(=O)NCC(O)Cc2ccccc2)n1 (stereo not given), the melting point was 184 to 185 °C.
Compound COc1ccc(/C=C/S(=O)(=O)CS(=O)(=O)/C=C/c2ccc(OC)c(O)c2)cc1O has a melting point of 148 to 150 °C.
CC(C)(C)c1cc(SCCC(=O)NC2CCC3CC2C3(C)C)cc(C(C)(C)C)c1O (stereo not given) gave a melting point of 152 to 154 °C.
O=c1c2ccccc2sn1CCN1CC=C(c2ccccc2)CC1 showed a melting point of 90 to 92 °C.
In the case of COC(=O)C1Cc2c([nH]c3ccccc23)C(c2ccccc2Br)N1 (stereo not given), the melting point is reported as 105 to 106 °C.
In the case of CC(C)c1ccc(C(=O)N(C(=N)N)C(=O)c2ccc(C(C)C)c(S(C)(=O)=O)c2)cc1S(C)(=O)=O, the melting point is reported as 218 to 221 °C.
CN1Cc2c(-c3nc(C4CC4)no3)ncn2-c2cccc(Br)c2C1=O showed a melting point of 187 to 189 °C.
O=C1CN(N=Cc2ncc(-c3ccc(Cl)cc3)o2)C(=O)N1 showed a melting point of 290 to 294 °C.
For CS(=O)(=O)C1Cc2cc(Cl)ccc2C1O (stereo not given), the melting point was 163 °C.
Cc1ccc2c(c1)C(C(=O)O)c1ccccc1CO2 (stereo not given) gave a melting point of 183 to 184 °C.
Work on CCNC1CCN(c2cccc(-c3cnc4[nH]cc(C(=O)C(C)(C)C)c4n3)c2)C1 (stereo not given) yielded a melting point of 200 to 202 °C.
With CCCCNC(=O)N(C)c1ncc(-c2ccncc2)cn1 the melting point was 97 to 99 °C.
In the case of O=C(O)C1=CC2C(=O)NC(=O)C2(CCO)C=C1 (stereo not given), the melting point is reported as 197 to 198 °C.
Work on CC1(C)CC(=O)c2ccc(C#Cc3cccnc3)nc2C1 yielded a melting point of 108 to 109 °C.
In the case of C[C@]12C[C@H](c3ccc(OCCCCCS(=O)(=O)CCCc4c(F)c(F)c(F)c(F)c4F)cc3)[C@@H]3c4ccc(O)cc4CC[C@H]3[C@@H]1CC[C@@H]2O, the melting point is reported as 130 °C.
Work on CCCc1c(OCc2ccc(C=CC(=O)O)cc2OC)ccc(C(C)=O)c1O yielded a melting point of 144 to 146 °C.
In the case of CC(C)(NC(N)=O)C(=O)NCCO[N+](=O)[O-], the melting point is reported as 98 to 100 °C.
Cc1cccc(CC(Cc2cccc(C)c2)C(=O)O)c1 showed a melting point of 86 to 88 °C.
With CCC1=C(C#N)C(c2cccc(Cl)c2Cl)c2c[nH]nc2N1 (stereo not given) the melting point was > 300 °C.
For CN1CCN(C(=O)c2cc(Oc3ccc4c(c3)CCN4C(=O)Nc3cccc(C(F)(F)F)c3)ncn2)CC1, the melting point was 203 to 204 °C.
COCC1=C(C(=O)OC)[C@H](c2ccc(F)c(F)c2)N(C(=O)NCCC(=O)O)C(=O)N1 showed a melting point of 52 to 55 °C.
For CCCn1c(COCC)nc2c(N)nc3ccc(OC4CCN(S(C)(=O)=O)CC4)cc3c21, the melting point was 240 to 244 °C.
Compound OC(COCc1ccc(Br)cc1)Cn1ccnc1 (stereo not given) has a melting point of 98 to 100 °C.
In the case of COc1cccc(C(CC(=O)O)SC)c1 (stereo not given), the melting point is reported as 61 to 63 °C.
Work on Clc1ccc2c3c(cccc13)C(NCCCCCn1ccnc1)=N2 yielded a melting point of 132 to 134 °C.
CCCCc1nc(Cl)c(CC(=O)OCC)c(Cc2ccc(C(=O)OC)cc2)n1 gave a melting point of 78 °C.
For COc1cc(N)c2nccc(C)c2c1OC, the melting point was 108 to 110 °C.
For O=S(=O)(NCCCCOc1ccc(-n2cnnn2)cc1)c1cccc2nsnc12, the melting point was 142 to 143 °C.
With N#CC1(c2ccncc2)CCCCC1 the melting point was 79 °C.
With Cc1c(SCCN2CCc3ccccc3C2)ccnc1CSc1nc2ccccc2[nH]1 the melting point was 90 to 94 °C.
With FC(F)(F)C(/C=C/c1ccc(-n2cncn2)cc1)c1cc(Cl)cc(Cl)c1 (stereo not given) the melting point was 93 to 97 °C.
CCc1cccc(NS(=O)(=O)c2ccc(N3CCNC3=O)cc2)c1 gave a melting point of 188 to 190 °C.
With CCCCCCCCCCCCc1ccc(S(=O)(=O)Nc2nnc(CCCCCNC)s2)cc1 the melting point was 158 to 160 °C.
With OCCOc1ccc(I)cc1 the melting point was 76 to 77 °C.
COc1ccc(-c2cncc(OC3SCC(O)C(O)C3O)c2)cc1Cl (stereo not given) showed a melting point of 165 °C.
Work on CCN(C(=O)n1occc1=O)c1ccc(Cl)cc1 yielded a melting point of 149 °C.
Compound NC(=S)C1(c2ccccn2)CCCS1 (stereo not given) has a melting point of 192 °C.
In the case of CCOC(=O)C(C(=O)OCC)C(Cc1cc(C(F)(F)F)ccc1N)c1ccccc1Cl (stereo not given), the melting point is reported as 74 to 76 °C.
CC(=O)NCC1CN(c2ccc(N3CCN(c4nc5ccccc5o4)CC3)c(F)c2)C(=O)O1 (stereo not given) showed a melting point of 223 to 224 °C.
O=C(Nc1ccc(Oc2ccccc2)cc1)N1CCN(c2ccnc3c(Cl)cccc23)CC1 gave a melting point of 174 to 175 °C.
With O=C(N1c2ccccc2C=Cc2ccccc21)C(F)(F)F the melting point was 85 to 91 °C.
Work on O=C(O)C(=O)c1cn(Cc2ccccc2)c2ccc(Oc3ccc(C(F)(F)F)cc3Cl)cc12 yielded a melting point of 152 to 154 °C.
O=C(O)c1cn(Cc2cnsn2)c2cc(F)c(F)cc2c1=O gave a melting point of 278 to 282 °C.
Compound O=C(O)Cc1ccc(CNC(=O)C2Cc3ccccc3N2S(=O)(=O)c2ccc(-c3cccc(C(F)(F)F)c3)cc2)cc1 (stereo not given) has a melting point of 90 °C.
CCSc1ccc(Oc2ccc(Cl)c(Cl)c2)nc1C#N gave a melting point of 64 to 66 °C.
CCCc1cc(C)c2oc(Cc3ccc(OC)cc3)c(C)c2c1O gave a melting point of 102 to 104 °C.
In the case of CC(C)(C)OC(=O)C=C(c1ccc(C#N)s1)n1ccnc1, the melting point is reported as 90 to 91 °C.
With CNC(=O)Nc1ccc(OCCCN2CCC(C(O)(c3ccc(F)cc3)c3ccc(F)cc3)CC2)cc1 the melting point was 177 to 178 °C.
In the case of CCCCCCCCCC(=O)Nc1cc(N)cc(NC(=O)CCCCCCCCC)c1, the melting point is reported as 152 to 154 °C.
With CS(=O)(=O)O[C@@H]1C[C@@H](C(N)=O)N(C(=O)OCc2ccc([N+](=O)[O-])cc2)C1 the melting point was 150 to 151 °C.
For COc1cc2c(cc1Nc1ncc(Cl)c(Nc3ccccc3S(=O)(=O)N(C)C)n1)CCN(Cc1nccn1C)CC2, the melting point was 79 to 86 °C.
For CCCCCNc1nc(C)c(C(=O)c2ccc(N)c([N+](=O)[O-])c2)s1, the melting point was 165 to 169 °C.
In the case of CC(C)Cn1c(=O)n(C)c(=O)c2c(C#CCCO)n(Cc3cccc4ccccc34)cc21, the melting point is reported as 170 to 171 °C.
For Cc1oc(-c2ccccc2)nc1COc1cccc(COc2cc(Cl)ccc2C(=O)O)c1, the melting point was 168 °C.
With OC(CN1CCN(C(c2ccccc2)c2ccccc2)CC1)c1ccc(OCc2ccccc2)cc1 (stereo not given) the melting point was 129 °C.
